Earlier results on three substances are cited in patent US4430326A (University Patents, Inc., priority 1981, dated 1984).

One data set relates to adenylate cyclase system. Conditions: literature reports.
The subject of data set [1] is glycogenolytic stimulation. Conditions: Cote, et al.

On to [12-homoargine]glucagon, for which, in the data set on adenylate cyclase system, the “reported action on adenylate cyclase activity (agonist / antagonist)” value was “full agonist”. N^α -trinitrophenyl glucagon: the “reported action toward glycogenolytic stimulation” value in data set [1] was “partial agonist”. Regarding N^α,N^ε -di(trinitrophenyl)-glucagon, the “reported action on adenylate cyclase activity (agonist / antagonist)” value in the data set with adenylate cyclase system was “agonists”.
